Reference: PubChem BioAssay (NCI)
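Following 48 hours of exposure in 96-well plates, responses at five concentrations were used to interpolate endpoints linearly. TGI: total growth inhibition.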

Key:
Test in all cases: growth of human tumour cells (NCI), 48 h
[1] = test system: MDA-MB-435
[2] = test system: PC-3 prostate
[3] = test system: HL-60(TB) leukemia
[4] = test system: A498 renal
[5] = test system: 786-0 renal
[6] = test system: HCC-2998 colon
[7] = test system: MOLT-4 leukemia
[8] = test system: MCF7 breast
[9] = test system: SK-OV-3 ovarian
[10] = test system: KM12 colon
[11] = test system: OVCAR-3 ovarian
[12] = test system: SR leukemia
[13] = test system: SK-MEL-28 melanoma
[14] = test system: TK-10 renal
[15] = test system: K-562 leukemia
[16] = test system: SN12C renal
[17] = test system: UO-31 renal
[18] = test system: T-47D breast
[19] = test system: SK-MEL-2 melanoma
[20] = test system: SF-268 CNS
[21] = test system: U251 CNS
[22] = test system: M14 melanoma
[23] = test system: OVCAR-4 ovarian
[24] = test system: ACHN renal
[25] = test system: RPMI-8226 leukemia
[26] = test system: HOP-62 NSCLC
[27] = test system: DU-145 prostate
[28] = test system: HS 578T breast
[29] = test system: NCI-H460 lung
[30] = test system: SNB-19 CNS
[31] = test system: A549 NSCLC
[32] = test system: BT-549 breast
[33] = test system: HCT-116 colon
[34] = test system: LOX IMVI melanoma
[35] = test system: HT29 colon
[36] = test system: SW-620 colon
[37] = test system: NCI-H522 lung
[38] = test system: COLO 205 colon
[39] = test system: HCT-15 colon
[40] = test system: NCI-H23 lung
[41] = test system: CCRF-CEM leukemia
[42] = test system: OVCAR-8 ovarian
[43] = test system: MALME-3M melanoma
[44] = test system: MDA-MB-231 breast
[45] = test system: SF-295 CNS
[46] = test system: IGROV1 ovarian
[47] = test system: NCI/ADR-RES ovarian
[48] = test system: UACC-62 melanoma
[49] = test system: MDA-N
[50] = test system: NCI-H226 lung
[51] = test system: SNB-75 CNS
[52] = test system: UACC-257 melanoma
[53] = test system: SF-539 CNS
[54] = test system: CAKI-1 renal
[55] = test system: EKVX NSCLC
[56] = test system: OVCAR-5 ovarian

Measured: TGI

COC(=O)C1(Cc2ccc3c(c2)CCC3)Cc2ccccc2C1
65 µM: [35]
67.8 µM: [38]
54.6 µM: [25]
51.3 µM: [15]
42.4 µM: [3]
62.8 µM: [23]
31 µM: [7]
72 µM: [19]
77.1 µM: [37]
30.8 µM: [41]
> 100 µM: all other assays above
